Patent publication US20210255193A1, “LYSINE REACTIVE PROBES AND USES THEREOF” (The Scripps Research Institute, priority 2017, published 2021)

Columns and labels:
PNPO [1] = target: T1, PNPO (Homo sapiens, UniProt Q9NVS9); assay: PNPO functional assay; type: biochemical; details: substrate assay, WT; read-out: IC50, blockade of PNPO catalytic activity
T1 construct: Flag; expressed in transfected cells; host or cells: HEK 293T, transient transfection, soluble lysate
T1 sequence (Q9NVS9 1-261): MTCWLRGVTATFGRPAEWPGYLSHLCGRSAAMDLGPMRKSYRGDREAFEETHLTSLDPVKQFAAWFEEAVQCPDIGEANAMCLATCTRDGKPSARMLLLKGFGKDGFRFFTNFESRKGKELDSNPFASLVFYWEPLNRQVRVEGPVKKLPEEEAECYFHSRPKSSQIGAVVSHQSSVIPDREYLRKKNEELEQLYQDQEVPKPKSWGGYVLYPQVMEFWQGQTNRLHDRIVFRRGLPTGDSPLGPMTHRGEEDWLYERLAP
Procedure: (§1) PNPO functional assay. 80 μl of soluble proteome (total protein concentration: 1 mg ml^−1) from HEK 293T cells expressing PNPO (WT or K100R mutant) or mock transfected cells (empty vector; negative control) were added into a clear bottom 384 well plate. For compound treatments, 1 μl of the inhibitor (80× solution in DMSO) or 1 μl of DMSO (positive control) were added and the reactions were incubated for 1 h at room temperature. 10 μl of 0.1 M Tris in PBS were added and the reaction was started by addition of 10 μl 5 mM pyridoxine phosphate (PNP) in water (PNP was prepared as described in Argoudelis, C. J., “Preparation of crystalline pyridoxine 5′-phosphate and some of its properties,” J. Agr. Food Chem. 34, 995-998 (1986)). The absorbance of the Schiff Base between pyridoxal phosphate and Tris was measured at 388 nm every minute for 30 min.
(§2) Calculation of relative activity or percent inhibition. For PNPO, PFKP, NUDT2 and G6PD, the slope of the linear regression of the linear portion of the absorbance or fluorescence over time was used as measure their activity. Apparent activity was calculated relative to the WT. Percent inhibition was calculated relative to the positive and negative control and used to calculate IC50 values by nonlinear regression analysis from a dose-response curve generated using GraphPad Prism 7.

PNPO [2] = target: T2, PNPO (Homo sapiens, UniProt Q9NVS9, K100R); assay: PNPO functional assay; type: biochemical; details: K100R mutant
T2 construct: Flag; expressed in transfected cells; host or cells: HEK 293T, transient transfection, soluble lysate
Procedure: as §1, §2

TGIF2-SIN3A interaction = target: T3, TGIF2-SIN3A interaction (Homo sapiens, UniProt Q96ST3); assay: ABPP-SILAC IP experiment for SIN3A interacting proteins; type: binding; details: 21 50 μM
T3 construct: expressed in transfected cells; host or cells: SILAC HEK 293T
Procedure: (§3) ABPP-SILAC IP experiment for SIN3A interacting proteins. All SILAC experiments were performed using the isotopically labeled human HEK 293T cell line generated by 8 passages in either light (100 μg ml^−1 each of L-arginine and L-lysine) or heavy (100 μg ml^−1 each of [^13C6^15N4]L-arginine and [^13C6^15N2]L-lysine) SILAC DMEM media (Thermo Scientific) supplemented with 10% dialyzed fetal calf serum, penicillin, streptomycin and glutamine. 2×10^5 SILAC HEK 293T cells were plated in 6 cm dishes in either heavy or light labeled SILAC media. Cells were transfected the next day with 1 μg of FLAG-GFP, or FLAG-SIN3A wild type, K155R, or K155W constructs as indicated. After 48 hours, cells were rinsed with ice-cold PBS and suspended in cold IP-lysis buffer (0.5% Chaps, 50 mM Hepes pH 7.4, 150 mM NaCl, and EDTA-free protease inhibitors and phosphatase inhibitors (Roche)) by gentle sonication. Samples were rotated for 30 minutes at 4° C. to complete lysis. For compound treatment experiments, 50 μM (final concentration) of 21 was added to samples prior to rotation. Samples were clarified by centrifugation for 1 minute at 16,000 rpm, and protein concentration was measured using the DC Protein Assay kit (Bio-Rad). Samples were normalized to 2 mg/mL by addition of cold IP-lysis buffer. 25 μL of anti-FLAG-M2 beads was added to the clarified supernatant and incubated for 3 h while rotating at 4° C. Beads were washed three times with cold PBS, and then eluted with 40 μL of […] for 10 min at 65° C. […] LC-MS spectra were collected and analyzed as described above with the following modifications. […] A list of all proteins enriched preferentially by SIN3A was generated from a comparison of SIN3A wild type vs GFP immunoprecipitations, including all proteins with at least two distinct quantified peptide sequences and a median ratio greater than or equal to 5 (R>5). […] Furthermore, if there were at least two quantified unique peptides, the median ratio of each protein's unique peptides (not occurring in any other human protein) were reported.

[3] = target: T4, SIN3A-interacting proteins MAX, MNT and MXI1 (Homo sapiens, UniProt Q96ST3); assay: as above; type: binding; details: 21 50 μM
T4 construct: expressed in transfected cells; host or cells: SILAC HEK 293T
Procedure: as §3

TGIF1-SIN3A interaction = target: T5, TGIF1-SIN3A interaction (Homo sapiens, UniProt Q96ST3); assay: as above; type: binding; details: 21 50 μM
T5 construct: expressed in transfected cells; host or cells: SILAC HEK 293T
Procedure: as §3

NUDT2 = target: T6, NUDT2 (Homo sapiens, UniProt P50583); assay: NUDT2 functional assay; type: biochemical; details: substrate assay
T6 construct: expressed in transfected cells; host or cells: HEK 293T, transient transfection, soluble lysate; synthesized gene (IDT)
Procedure: NUDT2 functional assay. NUDT2 activity was measured with a published assay using a fluorogenic substrate. For inhibitor experiments, 50 μl of soluble proteome (initial total protein concentration: 1 mg ml^−1) from HEK 293T cells expressing NUDT2 (WT or K89R mutant) or mock transfected cells (empty vector; negative control) were incubated with 1 μl 50× of the compound in DMSO or DMSO for the positive or negative control (lysate transfected with empty vector) for 1 h at room temperature. Lysates were diluted 4000× with dilution buffer and 64 μl were added into a black 384 well plate. 16 μl of fluorogenic substrate (5 μM) were added to start the reaction. The fluorescence intensity with excitation at 530 nm and emission at 563 nm was measured every minute for 30 min.
as §2

T2 sequence (Q9NVS9 whole entry K100R): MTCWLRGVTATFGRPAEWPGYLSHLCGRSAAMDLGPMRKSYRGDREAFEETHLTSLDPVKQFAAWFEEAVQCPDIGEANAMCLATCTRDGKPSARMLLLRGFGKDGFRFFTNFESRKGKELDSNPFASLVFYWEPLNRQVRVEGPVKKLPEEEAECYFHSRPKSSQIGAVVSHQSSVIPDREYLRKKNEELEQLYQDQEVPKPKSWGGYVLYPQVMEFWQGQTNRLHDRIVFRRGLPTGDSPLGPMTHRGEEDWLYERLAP
T6 sequence (P50583 whole entry): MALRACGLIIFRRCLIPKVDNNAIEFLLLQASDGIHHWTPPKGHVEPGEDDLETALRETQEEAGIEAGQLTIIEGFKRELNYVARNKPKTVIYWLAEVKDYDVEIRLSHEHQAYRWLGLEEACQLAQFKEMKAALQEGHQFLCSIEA
T4 sequence (Q96ST3 1-400): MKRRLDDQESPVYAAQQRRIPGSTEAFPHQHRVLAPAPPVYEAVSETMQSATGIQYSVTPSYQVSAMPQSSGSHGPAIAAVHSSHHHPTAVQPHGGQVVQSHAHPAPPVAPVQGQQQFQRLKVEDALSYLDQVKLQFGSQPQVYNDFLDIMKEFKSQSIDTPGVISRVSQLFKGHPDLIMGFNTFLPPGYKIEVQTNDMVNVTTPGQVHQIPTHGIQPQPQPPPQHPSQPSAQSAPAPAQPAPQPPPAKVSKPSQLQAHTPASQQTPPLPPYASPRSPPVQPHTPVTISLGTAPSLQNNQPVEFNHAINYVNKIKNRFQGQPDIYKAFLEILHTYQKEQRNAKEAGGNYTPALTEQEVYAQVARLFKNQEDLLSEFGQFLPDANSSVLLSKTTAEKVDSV
T3 sequence (Q96ST3 1-400): as above
T5 sequence (Q96ST3 1-400): as above

In the case of `O=C(CCc1cn(-c2ccccc2)nc1-c1ccccc1)Oc1c(F)c(F)c(F)c(F)c1F` [fragment 19, Pentafluorophenyl 3-(1,3-diphenyl-1H-pyrazol-4-yl)propanoate], the IC50 (PNPO [1]) is reported as roughly 5 µM and the “inhibitory effect on K100R mutant of PNPO” value (PNPO [2]) is reported as “not observed”.
For `O=C(Oc1c(F)c(F)c(F)c(F)c1F)c1cc(C(F)(F)F)cc(C(F)(F)F)c1` [fragment 21, Pentafluorophenyl 3,5-bis(trifluoromethyl)benzoate], the “effect on TGIF2-SIN3A interaction” value (TGIF2-SIN3A interaction) was “marginal effect”, the “effect on co-immunoprecipitation of MAX, MNT and MXI1 with WT-SIN3A” value [3] was “not affected” and the “effect on TGIF1-SIN3A interaction” value (TGIF1-SIN3A interaction) was “strongly blocked the TGIF1-SIN3A interaction”.
With `COC(=O)NC(=NC(=O)OCC1c2ccccc2-c2ccccc21)n1cccn1` [fragment 49, N-Methoxycarbonyl-N′-9-fluorenylmethoxycarbonyl-pyrazole-1-carboxamidine] the “IC50, inhibition of NUDT2 activity” value (NUDT2) was “equivalent IC50 value”.
